The target of one experiment is Neutrophil collagenase (Homo sapiens, UniProt P22894). Kind of experiment: Inhibitory concentration against human matrix metalloprotease-8 (human neutrophil collagenase, MMP-8).
Experiment [1] is described as follows: Affinity ratio of IC50 of MMP-3 to IC50 of MMP-8.
Another experiment has as its target Stromelysin-1 (Homo sapiens, UniProt P08254). Kind of experiment: Inhibitory concentration against human matrix metalloprotease-3 (MMP-3).

Neutrophil collagenase, sequence (P22894 whole entry): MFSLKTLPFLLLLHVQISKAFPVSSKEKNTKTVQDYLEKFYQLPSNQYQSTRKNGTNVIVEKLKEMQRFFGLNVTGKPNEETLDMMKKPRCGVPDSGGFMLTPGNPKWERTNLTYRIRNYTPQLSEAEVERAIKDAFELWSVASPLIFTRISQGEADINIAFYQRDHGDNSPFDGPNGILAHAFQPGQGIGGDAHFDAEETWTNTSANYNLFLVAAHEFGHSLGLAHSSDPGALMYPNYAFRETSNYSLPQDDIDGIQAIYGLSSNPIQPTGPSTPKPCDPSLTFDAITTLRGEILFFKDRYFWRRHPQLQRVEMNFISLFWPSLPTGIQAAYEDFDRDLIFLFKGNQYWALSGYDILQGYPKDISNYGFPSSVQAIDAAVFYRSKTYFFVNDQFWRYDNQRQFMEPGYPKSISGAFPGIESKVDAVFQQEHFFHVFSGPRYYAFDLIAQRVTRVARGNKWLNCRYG
Stromelysin-1, sequence (P08254 whole entry): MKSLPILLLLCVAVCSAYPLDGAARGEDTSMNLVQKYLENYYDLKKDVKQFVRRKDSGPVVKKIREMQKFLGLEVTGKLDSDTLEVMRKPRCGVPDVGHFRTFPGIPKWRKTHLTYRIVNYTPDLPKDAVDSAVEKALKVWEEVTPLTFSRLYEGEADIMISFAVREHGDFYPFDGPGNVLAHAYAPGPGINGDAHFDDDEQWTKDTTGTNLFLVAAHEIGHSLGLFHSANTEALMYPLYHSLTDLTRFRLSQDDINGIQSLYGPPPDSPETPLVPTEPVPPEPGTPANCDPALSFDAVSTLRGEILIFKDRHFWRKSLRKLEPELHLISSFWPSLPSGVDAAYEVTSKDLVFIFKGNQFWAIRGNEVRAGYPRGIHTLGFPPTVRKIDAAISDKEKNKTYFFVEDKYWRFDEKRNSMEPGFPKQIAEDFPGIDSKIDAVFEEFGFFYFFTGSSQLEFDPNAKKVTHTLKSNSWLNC

Take `O=C(NO)C1Cc2ccccc2CN1S(=O)(=O)c1ccc(OCc2ccc(F)cc2)cc1` (centres undefined): the IC50 worked out at 0.002 µM against Neutrophil collagenase and 0.02 µM on Stromelysin-1 (read-out: IC50). For the same compound, the log10(IC50 MMP-3/IC50 MMP-8) in experiment [1] was determined as 1.
As for `CCOC(=O)Oc1ccc2c(c1)CN(S(=O)(=O)c1ccc(OC)cc1)C(C(=O)NO)C2` (centres undefined), the IC50 against Neutrophil collagenase came out at 0.002 µM; at Stromelysin-1 (read-out: IC50) it was 0.02 µM. Moreover, the log10(IC50 MMP-3/IC50 MMP-8) in experiment [1] stood at 1.
Consider `O=C(NCc1csc(S(=O)(=O)N2Cc3ccccc3CC2C(=O)NO)c1)c1ccccc1` (centres undefined), for which the values for the IC50 against Neutrophil collagenase and on Stromelysin-1 (read-out: IC50) were 0.8 µM and 6 µM, respectively. In addition, in experiment [1], the log10(IC50 MMP-3/IC50 MMP-8) came to 0.88.
For the compound `O=C(NO)C1Cc2ccccc2CN1S(=O)(=O)c1ccc2ccccc2c1` (centres undefined), the values for the IC50 against Neutrophil collagenase and at Stromelysin-1 (read-out: IC50) were 0.07 µM and 0.4 µM, respectively. Moreover, in experiment [1], the log10(IC50 MMP-3/IC50 MMP-8) came to 0.76.
In the case of `O=C(Nc1ccc(S(=O)(=O)N2Cc3ccccc3CC2C(=O)NO)cc1)OCc1ccccc1` (centres undefined), the figures for the IC50 at Neutrophil collagenase and at Stromelysin-1 (read-out: IC50) were 0.8 µM and 0.4 µM, respectively.
`COc1ccc(S(=O)(=O)N2Cc3cc(NC(=O)CCC(=O)O)ccc3CC2C(=O)NO)cc1` (centres undefined): the IC50 on Neutrophil collagenase worked out at 0.04 µM; on Stromelysin-1 (read-out: IC50), 0.02 µM. Also, the log10(IC50 MMP-3/IC50 MMP-8) in experiment [1] is -0.3.
Turning to `O=C(O)C1Cc2ccccc2CN1S(=O)(=O)c1ccc(-c2nc3ccccc3o2)cc1` (centres undefined), the IC50 against Neutrophil collagenase amounted to 0.08 µM; on Stromelysin-1 (read-out: IC50), 0.8 µM.
Take `COc1ccc(OC(=O)Nc2cccc(S(=O)(=O)N3Cc4ccccc4CC3C(=O)NO)c2)cc1` (centres undefined): the IC50 on Neutrophil collagenase is 0.2 µM; at Stromelysin-1 (read-out: IC50) it was 3 µM. Moreover, the log10(IC50 MMP-3/IC50 MMP-8) in experiment [1] was found to be 1.18.
For the compound `COc1ccc(S(=O)(=O)N2Cc3ncn(C)c3C[C@@H]2C(=O)NO)cc1`, the log10(IC50 MMP-3/IC50 MMP-8) in experiment [1] was found to be 0.82. Also, the IC50 at Stromelysin-1 (read-out: IC50) was 0.02 µM.
Turning to `O=C(NO)C1Cc2ccccc2CN1S(=O)(=O)c1ccc2[nH]c(-c3ccccc3)nc2c1` (centres undefined), the IC50 on Neutrophil collagenase was 0.04 µM; at Stromelysin-1 (read-out: IC50), 0.5 µM. The log10(IC50 MMP-3/IC50 MMP-8) in experiment [1] was determined as 1.1.
For the compound `CCCCOc1ccc(S(=O)(=O)N2Cc3ccccc3CC2C(=O)NO)cc1` (centres undefined), the IC50 against Neutrophil collagenase was 0.002 µM; on Stromelysin-1 (read-out: IC50) it was 0.03 µM. Besides, the log10(IC50 MMP-3/IC50 MMP-8) in experiment [1] turned out to be 1.18.
Turning to `COc1ccc(S(=O)(=O)N2Cc3cc(NC(=O)[C@H](CC(=O)OC(C)(C)C)NC(=O)Cc4ccccc4)ccc3CC2C(=O)NO)cc1` (some centres undefined), the IC50 came to 0.01 µM on Neutrophil collagenase and 0.04 µM on Stromelysin-1 (read-out: IC50). In experiment [1], the log10(IC50 MMP-3/IC50 MMP-8) came out at 0.6.
On to `O=C(NO)C1Cc2ccccc2CN1S(=O)(=O)c1cc(Br)c(Br)s1` (centres undefined), for which the IC50 at Neutrophil collagenase is 0.5 µM; against Stromelysin-1 it was 10000 nM l-1. Further, the log10(IC50 MMP-3/IC50 MMP-8) in experiment [1] was found to be 1.3.
The compound `O=C(NO)C1Cc2ccccc2CN1S(=O)(=O)c1ccc(-c2ccccc2)cc1` (centres undefined) showed an IC50 against Neutrophil collagenase of 0.002 µM. In experiment [1], the log10(IC50 MMP-3/IC50 MMP-8) was 1.
For `CC(C)(C)OC(=O)Nc1ccc2c(c1)CN(S(=O)(=O)c1ccc(-c3ccc(F)cc3)cc1)C(C(=O)NO)C2` (centres undefined), the values for the IC50 on Neutrophil collagenase and at Stromelysin-1 (read-out: IC50) were 0.01 µM and 0.1 µM, respectively. Also, the log10(IC50 MMP-3/IC50 MMP-8) in experiment [1] turned out to be 1.
For `CSc1nccc(-c2ccc(S(=O)(=O)N3Cc4ccccc4CC3C(=O)NO)s2)n1` (centres undefined), the IC50 against Neutrophil collagenase was determined as 0.02 µM; at Stromelysin-1 (read-out: IC50), 2 µM. In experiment [1], the log10(IC50 MMP-3/IC50 MMP-8) worked out at 2.
As to `O=C(c1ccccc1)c1ccc(S(=O)(=O)N2Cc3ccccc3CC2C(=O)O)cc1` (centres undefined), the IC50 against Neutrophil collagenase was 0.3 µM; on Stromelysin-1 (read-out: IC50), 3 µM.
For `CN(C)c1cccc2c(S(=O)(=O)N3Cc4ccccc4CC3C(=O)NO)cccc12` (centres undefined), the IC50 against Neutrophil collagenase was determined as 0.2 µM; on Stromelysin-1 (read-out: IC50), 0.4 µM. Further, the log10(IC50 MMP-3/IC50 MMP-8) in experiment [1] came out at 0.3.
As for `O=C(O)C1Cc2ccccc2CN1S(=O)(=O)c1ccc(-c2ccon2)s1` (centres undefined), the IC50 at Neutrophil collagenase worked out at 0.6 µM; on Stromelysin-1 (read-out: IC50), 2 µM.
In the case of `O=C(O)[C@H]1Cc2c([nH]c3ccccc23)CN1S(=O)(=O)c1ccc(Oc2ccccc2)cc1`, the log10(IC50 MMP-3/IC50 MMP-8) in experiment [1] came out at 1.3.
With `O=C(O)C1Cc2ccccc2CN1S(=O)(=O)c1ccc(-c2ccccn2)s1` (centres undefined), the IC50 on Neutrophil collagenase was determined as 0.09 µM; on Stromelysin-1 (read-out: IC50), 2 µM.
Turning to `O=C(O)C1Cc2ccccc2CN1S(=O)(=O)c1ccc(Br)cc1` (centres undefined), the IC50 was 0.6 µM against Neutrophil collagenase and 5 µM at Stromelysin-1 (read-out: IC50).
`COc1ccc(S(=O)(=O)N2Cc3[nH]cnc3C[C@@H]2C(=O)NO)cc1`: the log10(IC50 MMP-3/IC50 MMP-8) in experiment [1] came to 0.7.
Turning to `O=C(NO)C1Cc2ccccc2CN1S(=O)(=O)Cc1ccccc1` (centres undefined), the figures for the IC50 against Neutrophil collagenase and against Stromelysin-1 were 3 µM and 10000 nM l-1, respectively.
With `COc1ccc(S(=O)(=O)N2Cc3[nH]c4ccccc4c3C[C@@H]2C(=O)NO)cc1`, the log10(IC50 MMP-3/IC50 MMP-8) in experiment [1] turned out to be 0.82.
`COc1ccc(S(=O)(=O)N2Cc3ccccc3C[C@@H]2C(=O)NO)cc1`: the log10(IC50 MMP-3/IC50 MMP-8) in experiment [1] came to 0.7. Further, the IC50 on Stromelysin-1 (read-out: IC50) is 0.02 µM.
`O=C(O)C1Cc2ccccc2CN1S(=O)(=O)c1ccc(Oc2ccccc2)cc1` (centres undefined): the IC50 on Neutrophil collagenase amounted to 0.009 µM; on Stromelysin-1 (read-out: IC50), 0.2 µM.
In the case of `COc1ccc(S(=O)(=O)N2Cc3cc(NC(=O)[C@H](C)N)ccc3CC2C(=O)NO)cc1` (some centres undefined), the IC50 on Stromelysin-1 (read-out: IC50) was 0.03 µM.
With `CCOC(=O)Nc1ccc(S(=O)(=O)N2Cc3ccccc3CC2C(=O)NO)cc1` (centres undefined), the log10(IC50 MMP-3/IC50 MMP-8) in experiment [1] was determined as 1.22.
Regarding `CNC(=O)c1ccc(Oc2ccc(S(=O)(=O)N3Cc4ccccc4CC3C(=O)O)cc2)cc1` (centres undefined), the results for the IC50 on Neutrophil collagenase and at Stromelysin-1 (read-out: IC50) were 0.04 µM and 0.3 µM, respectively.
In the same order, the values of `N#Cc1ccc(Oc2ccc(S(=O)(=O)N3Cc4ccccc4CC3C(=O)O)cc2)cc1` (centres undefined) are 0.01 µM and 1 µM.
Turning to `COc1ccc(S(=O)(=O)N2Cc3cc([N+](=O)[O-])ccc3CC2C(=O)NO)cc1` (centres undefined), the log10(IC50 MMP-3/IC50 MMP-8) in experiment [1] was 1.
On to `CSc1nccc(-c2ccc(S(=O)(=O)N3Cc4ccccc4CC3C(=O)O)s2)n1` (centres undefined), for which the IC50 against Neutrophil collagenase was determined as 1 µM; at Stromelysin-1 it was 10000 nM l-1.
With `COc1ccc(S(=O)(=O)N2Cc3ccccc3C[C@H]2C(=O)NO)cc1`, the log10(IC50 MMP-3/IC50 MMP-8) in experiment [1] was found to be 0.85. In addition, the IC50 at Stromelysin-1 (read-out: IC50) was determined as 7 µM.
For `O=C(Nc1cccc(S(=O)(=O)N2Cc3ccccc3CC2C(=O)NO)c1)c1ccccc1O` (centres undefined), the IC50 is 0.2 µM against Neutrophil collagenase and 10000 nM l-1 against Stromelysin-1.
With `O=C(O)C1Cc2ccccc2CN1S(=O)(=O)c1ccc(/C=C/c2ccccc2)cc1` (centres undefined), the IC50 is 0.06 µM against Neutrophil collagenase and 0.7 µM on Stromelysin-1 (read-out: IC50).
Consider `O=C(O)C1Cc2ccccc2CN1S(=O)(=O)c1ccc(-c2ccc(C(F)(F)F)cc2)cc1` (centres undefined), for which the IC50 at Neutrophil collagenase came out at 0.01 µM; on Stromelysin-1 (read-out: IC50), 0.3 µM.
Turning to `O=C(O)C1Cc2ccccc2CN1S(=O)(=O)c1ccc(Sc2ccccc2)cc1` (centres undefined), the figures for the IC50 against Neutrophil collagenase and on Stromelysin-1 (read-out: IC50) were 0.2 µM and 2 µM, respectively.
For `O=C(O)C1Cc2ccccc2CN1S(=O)(=O)c1ccc(-n2nccn2)cc1` (centres undefined), the IC50 at Neutrophil collagenase stood at 0.09 µM; on Stromelysin-1 (read-out: IC50) it was 0.6 µM.
For `COc1ccc(S(=O)(=O)N2Cc3cc(N)ccc3CC2C(=O)NO)cc1` (centres undefined), at Stromelysin-1 (read-out: IC50), the IC50 was 0.01 µM.
Regarding `O=C(NO)[C@H]1Cc2c([nH]c3ccccc23)CN1S(=O)(=O)c1ccc(N2CCOCC2)cc1`, in experiment [1], the log10(IC50 MMP-3/IC50 MMP-8) came out at 0.63.
In the case of `O=C(O)C1Cc2ccccc2CN1S(=O)(=O)CCc1ccc(-c2ccccc2)cc1` (centres undefined), the IC50 against Neutrophil collagenase worked out at 0.02 µM; on Stromelysin-1 (read-out: IC50), 0.05 µM.
On to `CC(=O)Nc1ccc(S(=O)(=O)N2Cc3ccccc3CC2C(=O)NO)cc1` (centres undefined), for which, in experiment [1], the log10(IC50 MMP-3/IC50 MMP-8) is 0.85.
Consider `O=C(O)C1Cc2ccccc2CN1S(=O)(=O)c1ccc(Oc2ccc(Cl)cc2)cc1` (centres undefined), for which the values for the IC50 at Neutrophil collagenase and at Stromelysin-1 (read-out: IC50) were 0.02 µM and 0.5 µM, respectively.
Consider `O=C(O)C1Cc2ccc(O)cc2CN1S(=O)(=O)c1ccc(-c2ccc(Cl)cc2)cc1` (centres undefined), for which the IC50 against Neutrophil collagenase was 0.02 µM; at Stromelysin-1 (read-out: IC50), 0.2 µM.

For the origin of these results see ChEMBL document CHEMBL1132460, “Affinity and selectivity of matrix metalloproteinase inhibitors: a chemometrical study from the perspective of ligands and proteins” (J Med Chem, 1999).
